Several values for one entry are separate records, joined by “and”; a condition that tells them apart may be missing. Equal values may be shown once. Entries after “also recorded” stand apart in the source; their conditions may differ. Read-outs that look alike come from different tables or passages of the source. Marks after values point to notes of the source that are not given here. Blank lines part the entries; values can stand above or below the compound they belong to.
Columns and labels:
[1] = test system: 27 nucleotide fragment of bacterial 16S ribosomal RNA incorporating the A-site; experiment: ESI-FT-ICR MS detection of non-covalent ligand:16S RNA complexes (ion abundance relative to unbound RNA); type: binding; conditions: for ion abundance of binary ligand:16S complex relative to unbound 16S RNA: 200 μM ligand, 5 μM target 16S RNA fragment; for affinity for 16S (order of magnitude): ESI-MS assay
Method: In separate mixtures, 200 μM of three ligands IBIS-326611 ((2S)-2-amino-3-hydroxy-1-piperazinylpropan-1-one), IBIS-326645 (5-methyl-1-(2-oxo-2-piperazinylethyl)-1,3-dihydropyrimidine-2,4-dione) and a concatenated compound thereof, IBIS-271583 (1-{2-[(3R)-4-(2S)-2-amino-3-hydroxypropanoyl)-3-methylpiperazinyl]-2-oxoethyl}-5-methyl-1,3-dihydropyrimidine-2,4-dione) are each mixed with 5 μM of target 16S RNA fragment and analyzed by mass spectrometry. IBIS-326611 is shown in FIG. 5 to form a binary complex having an ion abundance 27.8% that of the unbound 16S RNA while IBIS-326645 in FIG. 6 forms a binary complex having an ion abundance 14.7% that of the unbound 16S RNA.
All MS experiments were performed by using an Apex II 70e ESI-FT-ICR MS (Bruker Daltonics, Billerica, Mass.) with an actively shielded 7 tesla superconducting magnet. RNA solutions were prepared in 50 mM NH4OAc (pH 7), mixed with 10% isopropanol to aid desolvation, and infused at a rate of 1.5 μL/min by using a syringe pump. Ions were formed in a modified electrospray source (Analytica, Branford, Conn.) by using an off-axis grounded electrospray probe positioned ca. 1.5 cm from the metallized terminus of the glass desolvation capillary biased at 5,000 V. A countercurrent flow of dry […] gas heated to 150° C. was used to assist in the desolvation process. Ions were accumulated in an external ion reservoir comprised of a radio frequency-only hexapole, a skimmer cone, and an auxiliary electrode for 1,000 ms before transfer into the trapped ion cell for mass analysis. Each spectrum was the result of the co-addition of 64 transients comprised of 524,288 data points acquired over a […] bandwidth, resulting in a 1.2-sec detection interval. All aspects of pulse sequence control, data acquisition, and postacquisition processing were performed by using a Bruker Daltonics data station running XMASS Version 4.0 on a Silicon Graphics (Mountain View, Calif.) R5000 computer.
RNA binding ligands are selected from a set of compounds using mass spectrometry. The RNA used for the target molecule is an RNA whose electrospray ionization properties have been optimized in conjunction with optimization of the electrospray ionization and desolvation conditions. […] A 50 μM stock solution of the RNA is purified, and dialyzed to remove sodium and potassium ions.
The compound set is pooled into mixtures of 8 members, each present at 1-10 mM in […]. A collection of these mixtures is diluted 1:50 into an aqueous solution containing 50-150 mM ammonium acetate buffer at pH 7.0, 1-5 μM RNA target, and 10-50% isopropanol, ethanol, or methanol to create the screening sample. The aqueous solution contains 100 μM each of 8 compounds, 50 mM ammonium acetate, 5 μM RNA target, and 25% isopropanol. These screening samples are arrayed in a 96-well microtiter plate, or added to individual vials for queuing into an automated robotic liquid hander under computer control by the mass spectrometer.
The source voltage potentials are adjusted to give stable electrospray ionization by monitoring the ion abundance of the free RNA. […] If available on the mass spectrometers, the partial gas pressure beyond the desolvation capillary is adjusted by throttling the pumping speed. This gas pressure may also be altered to optimize the ion abundance and observation of the ammonium ion adducts. After instrument performance has been optimized, the voltage potential between the capillary and skimmer lens is increased to reduce the abundance of the ion from the monoammonium-RNA complex to […] of the abundance of the ion from the RNA. These instrument parameters are used for detection of complexes between the RNA and compound set.
The compound set is screened for members that form non-covalent complexes with the RNA. […]

[2] = test system: 27-mer fragment of ribosomal RNA comprising the 16S A-site; experiment: Mode of binding of ligand pairs by ESI-MS (presence or absence of ternary complex); parameters: species or system bacterial; conditions: for binding interaction of ligand pair 2-DOS / 3,5-DT on 16S RNA: 5 μM 16S, 100 μM 2-DOS, 0.5 mM 3,5-DT; for binding interaction of ligand pair 2-DOS / 2,4-diaminopyrimidine on 16S RNA: no ternary complex signal; for binding interaction of ligand pair Ibis-326732 / glucosamine on 16S RNA: 70 μM Ibis-326732, 100 μM glucosamine, 5 μM 16S RNA
Excerpt: Ligands bind competitively for a target when the binding of one ligand prevents the binding of the other ligand is the result of the ligands binding to the target at the same location. In this situation, the mixture contains an equilibrium of two binary complexes, one of which being one ligand bound to the target and the other being the other ligand bound to the target. The ligand having the greater affinity for the target will predominate and thus have higher signal intensity for its binary complex with the target compared to the other ligand. Competitive binding interaction between two ligands is determined according to methods of the invention by analyzing the mixture by mass-spectrometry to detect the presence or lack of signal corresponding to a ternary complex where both ligands are bound to the target at the same time. The lack of signal for a ternary complex indicates a competitive binding interaction between the two ligands while the presence of the signal indicates a non-competitive interaction.
Accordingly, in an aspect of the present invention, there is provided a method for determining the relative interaction between at least two ligands with respect to a target substrate. In practicing this method an amount of each of the ligands is mixed with an amount of the target substrate to form a mixture. This mixture is analyzed by mass spectrometry to determine the presence or absence of a ternary complex corresponding to the simultaneous adduction of two of the ligands with the target substrate.
Ligands bind concurrently when the binding of one ligand to the target is unaffected by the binding of the other and is a consequence of the ligands binding to the target at distinct sites. […] The ligand having the greater affinity for the target will have higher signal intensity for its binary complex with the target compared to the other ligand. […] Particularly, the absolute ion abundance of the ternary complex (TL1L2) is compared to the relative ion abundance of the binary complexes (TL1 and TL2) which contribute to the formation of the ternary complex with respect to the unbound target (TL1×TL2/T). Since there are two binary complexes contributing the formation of the ternary complex, the comparison is with the sum of the two contributing binary complexes i.e. TL1×TL2/T+TL2×TL1/T. If the absolute ion abundance of the ternary complex is equal to the sum of the relative ion abundance of the contributing binary complexes, then the two ligands concurrently bind to the target substrate. Expressed another way, a pair of ligands are concurrent binders for a target if in either of the following equivalent formulae the value of y is equal to zero: […]
In the compound collection used in Example 1, those compounds that formed complexes with the RNA target are pooled into groups of 4-10 and screened again as a mixture against the RNA target as outlined in Example 1. Since all of the compounds have been shown previously to bind to the RNA, three possible changes in the relative ion abundance are observed in the mass spectrometry assay. If two compounds bind at the same site, the ion abundance of the RNA complex for the weaker binder will be decreased through competition for RNA binding with the higher affinity binder (competitive binding). An example is presented in FIG. 3, where the ion abundance from a glucosamine-RNA complex is reduced as glucosamine is displaced from the RNA by addition of a benzimidazole compound. If two compounds can bind at distinct sites, signals will be observed from the respective binary complexes with the RNA and from the ternary complex where both compounds bind to the RNA simultaneously (concurrent binders). […] The relative ion abundance from the […] for 3,5-DT to the free RNA is measured, as is the relative ion abundance from the ternary complex between 3,5-DT, 2-DOS, and RNA and the binary complex. […]

[3] = biological target: 16S ribosomal RNA fragment (27mer RNA, SEQ ID NO:1); experiment: ESI-MS titration of 2-DOS against 16S, polynomial fit for dissociation constants; type: binding, bacterial; conditions: 4th order polynomial fit, 100 mM ammonium acetate buffer
Method: 2′-O-ACE protected 27mer RNA ([…]; SEQ ID NO:1) was purchased from Dharmacon Research (Boulder, Colo.). Aqueous solutions were deprotected for 30 min at 60° C. in a 0.1M tetramethylenediamine acetate buffer at pH 3.5. […] All chemicals were purchased from Aldrich Chemicals (Milwaukee), except for 2-deoxystreptamine and 3,5-diamino-1-N-methyl-triazole, which were prepared according to Georgiadis et al (J. Carbohydr. Chem. 1991, 10, 739-748) and Kaiser et al (U.S. Pat. No. 2,648,670). Ligands were added to the indicated final concentrations from 20 mM aqueous solutions.
Identical sample preparations were used for experiments with FTICR mass spectrometer. […] Sample was introduced at 1.0 μL/min and the capillary interface unheated. Ions were stored for 1.25 sec in a hexapole ion guide prior to transfer to the trapped ion cell. The indicated gas pressure over the vacuum pump situated below the hexapole ion guide was ˜8×10^−6 mbar. The parallel measurements of relative activation energy were performed with the FTICR mass spectrometer by varying the potential difference between the capillary exit and the first skimmer lens element. Typically, 32 1.2 sec transients of 512 k data points were summed prior to Fourier transformation and display.
2-deoxystreptamine (2-DOS) bound to 16S at multiple locations as a function of increasing concentration. At 0.33 mM, one 2-DOS bound 16S, generating an [M-5H^+]^5− complex observed at m/z 1758.9. Complexes corresponding to three and four 2-DOS molecules bound concurrently to 16S appeared at concentrations above 3.3 mM. Knowledge of the binding stoichiometry lead to the use of a fourth-order polynomial for calculation of the respective dissociation constants (KD) (Greig et al., J. Am. Chem. Soc. 1995, 117, 10765-10766).

[4] = test system: 16S ribosomal RNA fragment; experiment: Relative solution affinities of ligand:16S complexes; type: binding, bacterial; conditions: normalized to the solution affinity of 4-aminobenzamidine

Compound: 1-{2-[(3R)-4-(2S)-2-amino-3-hydroxypropanoyl)-3-methylpiperazinyl]-2-oxoethyl}-5-methyl-1,3-dihydropyrimidine-2,4-dione [IBIS-271583]
affinity for 16S RNA compared with another ligand (ion abundance of binary complexes) [1]: greater affinity for 16S than either parent compound
ion abundance of binary ligand:16S complex relative to unbound 16S RNA [1]: 14.7%
ion abundance of binary ligand:16S complex relative to unbound 16S RNA ([1]; listed as IBIS-271483): 52.4%
affinity for 16S RNA compared with another ligand (ion abundance of binary complexes) ([1]; listed as IBIS-271483): greater affinity for the target 16S RNA than either of the parent compounds

Compound: N[C@@H]1C[C@H](N)[C@@H](O)C(O)[C@H]1O (stereo partly drawn) [2-DOS, 2-deoxystreptamine]
binding interaction of ligand pair 2-DOS / 3,5-DT on 16S RNA [2]: concurrent binding interaction; also recorded: cooperative binding
binding interaction of ligand pair 2-DOS / 2,4-diaminopyrimidine on 16S RNA [2]: preferred sites overlap and 2-DOS displaces DAP for binding
Kd ([3]; read-out: KD of 2-DOS:16S complex (first 2-DOS)): 0.61 mM and 0.6 mM
Kd ([3]; read-out: KD of (2-DOS)2:16S complex (second 2-DOS)): 1.4 ± 0.1 mM
Kd ([3]; read-out: KD of (2-DOS)3:16S complex (third 2-DOS)): 4 ± 1 mM
affinity for 16S RNA compared with another ligand (ion abundance of binary complexes) [1]: greater binding affinity for the target RNA than DT

Compound: NN1CN(SCc2ccccc2)C=N1 [2-amino-4-benzylthio-1,2,4-triazole]
complex with RNA target observed by ESI-MS [1]: seen

Compound: Nc1n[nH]c(N)n1 [3,5-DT, 3,5-diamino-1,2,4-triazole]
binding interaction of ligand pair 2-DOS / 3,5-DT on 16S RNA [2]: cooperative binding; also recorded: concurrent binding
binding interaction of ligand pair 2-DOS / 3,5-DT on 16S RNA ([2]; listed as DT): concurrent binding interaction
affinity for 16S (order of magnitude) [1]: ˜mM affinities

Compound: Cn1nc(N)nc1N [3,5-diamino-1-N-methyltriazole]
complex with RNA target observed by ESI-MS [1]: not observed

Compound: N=C(N)c1ccc(N)cc1 [ABA, 4-aminobenzamidine]
Relative Soln. Affinity [4]: 1.00^b

Compound: NC(=O)c1[nH]cnc1N [AICA, 4-aminoimidazole-5-carboxamide]
Relative Soln. Affinity [4]: .26 + 0.04

Compound: Nc1ccnc(N)n1 [DAP, 2,4-diaminopyrimidine]
binding interaction of ligand pair 2-DOS / 2,4-diaminopyrimidine on 16S RNA [2]: preferred sites overlap and 2-DOS displaces DAP for binding
Relative Soln. Affinity [4]: .17 + 0.04
affinity for 16S (order of magnitude) [1]: ˜mM affinities

binding interaction of ligand pair Ibis-326732 / glucosamine on 16S RNA [2]: competitive binders
Compound: N[C@H]1C(O)O[C@H](CO)[C@@H](O)[C@@H]1O (stereo partly drawn) [GA, glucosamine]
Relative Soln. Affinity [4]: lower than GBI
Relative Soln. Affinity ([4]; listed as Glucosamine): .86 + 0.03

Compound: N=C(N)Nc1nc2ccccc2[nH]1 [GBI, 2-guanidylbenzimidazole]
Relative Soln. Affinity [4]: .99 + 0.02

Compound: N[C@@H](CO)C(=O)N1CCNCC1 [IBIS-326611, (2S)-2-amino-3-hydroxy-1-piperazinylpropan-1-one]
ion abundance of binary ligand:16S complex relative to unbound 16S RNA [1]: 27.8%

Compound: Nc1cccc2nc(C3CCNCC3)[nH]c12 [Ibis-326732, 4-amino-2-piperidin-4-ylbenzimidazole]
binding interaction of ligand pair Ibis-326732 / glucosamine on 16S RNA [2]: competitive binders
affinity for 16S RNA compared with another ligand (ion abundance of binary complexes) [1]: greater affinity than glucosamine

Reference: US8188011B1, “Optimization of ligand affinity for RNA targets using mass spectrometry” (Isis Pharmaceuticals, Inc., priority 2000, dated 2012)
